Experimental data taken from patent US9988407B2, “Prodrugs of prostate specific membrane antigen (PSMA) inhibitor” (THE JOHNS HOPKINS UNIVERSITY, priority 2014, dated 2018).
“Also recorded” adds a separate entry of the source.

How the values were obtained:
EAE = details: cited from earlier work
DSS-induced colitis = test: DSS-induced murine model of colitis; assay type: in vivo, C57/B6 mice
Protocol: Disease activity index (DAI), which positively correlated with the disease severity, was used as a measure for clinical activity. * P<0.05;
(§1) To investigate whether PSMA can be a suitable novel therapeutic target for clinical intervention against IBD, the effect of PSMA prototype inhibitors on three most widely used murine models of IBD was tested, including DNBS-induced colitis, DSS-induced colitis, and IL-10 knockout (IL-10 KO) mice (a genetic model that develops spontaneous colitis). In all three models, PSMA inhibitor treatment dramatically ameliorated symptoms. […] The improvement of these prolapse-retracting mice was unequivocally obvious in that their body weight increased dramatically when compared to that of untreated control IL-10 KO mice (FIG. 21C).

PSMA = target: T1, PSMA (Mus musculus, UniProt O35409); test: PSMA activity in colonic or cecal mucosa of DSS-treated mice; assay type: in vivo; details: DSS-induced colitis, mucosa extract
T1 construct: from tissue; host or cells: colonic or cecal mucosa of C57/B6 mice with DSS-induced colitis
Protocol: PSMA activity was measured using extract from mucosa;
as §1

[1] = system: spontaneous colitis in IL-10 KO mice; test: Spontaneous colitis in IL-10 knockout mice; assay type: in vivo, IL-10 KO mice (C57/B6)
Protocol: as §1

[2] = cited from earlier work

T1 sequence (O35409 whole entry): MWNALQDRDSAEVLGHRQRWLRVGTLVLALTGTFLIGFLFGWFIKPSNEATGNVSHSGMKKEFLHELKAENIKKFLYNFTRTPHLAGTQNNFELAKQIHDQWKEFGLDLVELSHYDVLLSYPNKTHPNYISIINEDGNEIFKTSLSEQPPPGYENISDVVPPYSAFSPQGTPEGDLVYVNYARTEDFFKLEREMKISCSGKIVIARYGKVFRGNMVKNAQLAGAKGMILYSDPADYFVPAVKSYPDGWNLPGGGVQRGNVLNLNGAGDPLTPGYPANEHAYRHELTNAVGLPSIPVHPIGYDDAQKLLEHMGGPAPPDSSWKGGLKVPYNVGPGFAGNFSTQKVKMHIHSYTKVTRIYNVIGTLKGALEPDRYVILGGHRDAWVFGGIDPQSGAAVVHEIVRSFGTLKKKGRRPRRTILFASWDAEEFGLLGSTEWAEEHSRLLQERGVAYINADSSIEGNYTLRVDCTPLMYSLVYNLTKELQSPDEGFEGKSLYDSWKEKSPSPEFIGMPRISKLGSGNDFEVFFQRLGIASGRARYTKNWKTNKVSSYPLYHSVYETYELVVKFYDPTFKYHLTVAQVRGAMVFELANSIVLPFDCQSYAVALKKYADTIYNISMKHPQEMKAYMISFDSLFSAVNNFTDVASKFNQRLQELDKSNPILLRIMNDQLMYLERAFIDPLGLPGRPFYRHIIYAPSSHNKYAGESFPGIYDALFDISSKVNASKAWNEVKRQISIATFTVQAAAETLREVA

O=C(O)CCC(CP(=O)(O)O)C(=O)O (stereo not drawn) [Compound 2-PMPA, 2-phosponomethyl pentanedioic acid]
cognitive function (EAE; EAE mice, Barnes maze): improves cognitive function; also recorded: cognition was significantly improved | brain NAAG (EAE; EAE mice, post mortem analysis): elevates NAAG; also recorded: significant increase in brain NAAG | physical severity of EAE (EAE; EAE mice): no difference in physical severity was observed | fear conditioning, fear memory (EAE; EAE+2-PMPA vs EAE+Vehicle): significant difference between fear memory | dose response (DSS-induced colitis; 1, 10, and 100 mg/kg i.p., murine IBD models): dose dependent effect with 100 mg/kg provided the most benefit | efficacy (DSS-induced colitis; i.p. administration at 100 mg/kg, DSS model): excellent efficacy | PSMA activity in colonic or cecal mucosa (PSMA): effectively suppresses PSMA activity | disease severity (macroscopic disease, prolapse), words ([1]; 100 mg/kg for 2 weeks): not only improvement of disease but even retraction of prolapse; also recorded: significantly reduced the disease severity | complete retraction of prolapse, share of treated mice ([1]; 2 of the 20 mice): 10% | efficacy ([1]; i.p. administration at 100 mg/kg, IL 10 knock out model): excellent efficacy | oral availability F ([2]; 2-PMPA itself): < 1% | concentrations in the brain ([2]; after 50-100 mg/kg intraperitoneal injection (i.p.) doses): 30 to 50 µM
